Data: the supplement of paper PMC10949913

Tests used:
Conditions in all cases: 48 h
NCI-H295R [1] = assay: AC50 viability; higher = less potent
Method in brief: (§1)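 For each of three adrenocortical carcinoma cell lines, 500–1,000 cells/well were placed in 5 µL medium in 1,536-well plates. A 23 nL volume of every library compound was added at 11 concentrations. Following 48 h, a 15-minute room-temperature CellTiter-Glo step preceded luminescence reading, with signals normalised per plate to vehicle and empty-well controls. AC50 and area under the curve were derived by curve fitting, retaining only inhibitory or non-responding curve classes.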

CU-ACC2 [2] = assay: AC50 viability; higher = less potent
Method in brief: as §1

CU-ACC1 [3] = assay: AC50 viability; higher = less potent
Method in brief: as §1

NCI-H295R [4] = assay: area under concentration-response curve (viability) (AUC (a.u.)); higher = less active
Method in brief: as §1

CU-ACC2 [5] = assay: as above
Method in brief: as §1

CU-ACC1 [6] = assay: as above
Method in brief: as §1

Row | SMILES | AC50 viability (NCI-H295R [1]) [µM] | AC50 viability (CU-ACC2 [2]) [µM] | AC50 viability (CU-ACC1 [3]) [µM] | area under concentration-response curve (NCI-H295R [4]) | area under concentration-response curve (CU-ACC2 [5]) | area under concentration-response curve (CU-ACC1 [6])
1 | CC(C)c1cnn2c(NCc3ccccc3)cc(N[C@@H](CO)[C@H](O)CO)nc12 | 1.48 | 0.295 | 0.372 | 395 | 326 | 372
2 | O=C1NCCc2[nH]c(-c3ccncc3)cc21 | 4.68 | 1.86 | 3.32 | 423 | 406 | 338
3 | CCN(CC)CCOC1=CC=C(NC2=NC=C3\C=C(/C(=O)N(C)C3=N2)C4=C(Cl)C=CC=C4Cl)C=C1 | 4.17 | 7.42 | 7.42 | 461 | 511 | 436
4 | COc1cc(N2CCC(N3CCN(C)CC3)CC2)ccc1Nc1ncc(Cl)c(Nc2ccccc2P(C)(C)=O)n1 | 2.63 | 1.32 | 2.09 | 409 | 398 | 383
5 | CC[C@H]1CN2CCc3cc(OC)c(OC)cc3[C@@H]2C[C@@H]1C[C@H]1NCCc2cc(OC)c(OC)cc21 | 1.66 | 0.934 | 0.59 | 412 | 463 | 366
6 | COc1cccc2c1C(=O)c1c(O)c3c(c(O)c1C2=O)C[C@@](O)(/C(CO)=N/NC(=O)CCCCCN1C(=O)C=CC1=O)C[C@@H]3O[C@H]1C[C@H](N)[C@H](O)[C@H](C)O1 | 18.6 | 18.6 | 20.9 | 492 | 539 | 356
7 | Cc1n[nH]c2ccc(-c3cncc(OC[C@@H](N)Cc4c[nH]c5ccccc45)c3)cc12 | 2.95 | 2.09 | 1.66 | 351 | 360 | 318
8 | CN1CCN(Cc2ccc(NC(=O)Nc3ccc(Oc4cc(NC(=O)C5CC5)ncn4)cc3)cc2C(F)(F)F)CC1 | 2.63 | 0.468 | 1.66 | 428 | 337 | 426
9 | N[C@@H](Cc1ccc(N(CCCl)CCCl)cc1)C(=O)O | 9.34 | 9.34 | 10.5 | 385 | 303 | 267
10 | NC(=O)c1cnc(N[C@@H]2CCCC[C@@H]2N)nc1Nc1cccc(-n2nccn2)c1 | 20.9 | 20.9 | 23.5 | 519 | 572 | 492
11 | CC[C@H]1/C=C\C=C/C[C@@H](C)[C@H](O)[C@@](C)(O)C(=O)[C@@H](C)[C@H](O)[C@@H](C)C(=O)[C@@H](C)[C@H](O)[C@@H](C)/C=C/C(=O)O[C@@H]2[C@H](C)[C@H](CC1)O[C@]1(CC[C@H](C)[C@H](C[C@@H](C)O)O1)[C@H]2C | 1.32 | 7.42 | 0.00186 | 326 | 402 | 193
12 | Cc1cc(F)c(C(=O)Nc2cccc(-c3nncn3C(C)C)n2)cc1-n1cnc(C2CC2)c1 | 18.6 | 11.8 | 18.6 | 419 | 360 | 427
13 | O=C(/C=C\n1cnc(-c2cc(C(F)(F)F)cc(C(F)(F)F)c2)n1)NNc1cnccn1 | 13.2 | 11.8 | 20.9 | 469 | 489 | 319
14 | CCCC1(CCC)CCC2(CCN(CCCN(CC)CC)C2)CC1 | 4.17 | 6.61 | 4.68 | 448 | 516 | 309
15 | CCCCOc1c(C(=O)c2c(F)cc(C)cc2F)cnc2[nH]ncc12 | 2.35 | 2.09 | 1.48 | 432 | 407 | 419
16 | C=CC(=O)Nc1ccc2ncnc(Nc3ccc(OCc4cccc(F)c4)c(Cl)c3)c2c1 | 10.5 | 10.5 | 20.9 | 510 | 534 | 334
17 | COc1ccc(Nc2cc(-c3cnc(N)nc3)nc(N3CCOCC3)n2)cn1 | 1.66 | 1.05 | 1.05 | 392 | 493 | 413
18 | COc1cc(N[S+](C)(=O)[O-])ccc1Nc1c2ccccc2nc2ccccc12 | 13.2 | 7.42 | 13.2 | 420 | 409 | 299
19 | CCN1C(=O)\C(=C/C2=C(C)N=C(N)N=C12)C3=CC=N[NH]3 | 5.25 | 3.32 | 4.17 | 431 | 455 | 397
20 | CN[C@@H]1C[C@H]2O[C@@](C)([C@@H]1OC)n1c3ccccc3c3c4c(c5c6ccccc6n2c5c31)C(=O)N[C@H]4O | 0.959 | 0.34 | 0.762 | 269 | 209 | 301
21 | O=C(c1ccc(F)c(F)c1Nc1ccc(I)cc1F)N1CC(O)([C@@H]2CCCCN2)C1 | 10.5 | 3.32 | 6.61 | 371 | 299 | 308
22 | CN(C)C[C@@H]1CC[N]2C=C(C3=C2C=CC=C3)C/4=C(/C(=O)NC4=O)C5=C[N](CCO1)C6=C5C=CC=C6 | 7.42 | 8.33 | 14.8 | 368 | 389 | 292
23 | CC(C)c1c2cc(-c3ccnc(N[C@H]4CC[C@H](NC5CCOCC5)CC4)n3)ccc2nn1C | 0.417 | 0.263 | 0.372 | 380 | 376 | 333
24 | CC(=O)Nc1ccc([C@H](C)C(=O)Nc2ncc(C(C)C)s2)cc1 | 18.6 | 5.25 | 9.34 | 485 | 376 | 448
25 | CO[C@H]1CC[C@H](N2C(=O)CNc3ncc(-c4ccc(C(C)(C)O)nc4)nc32)CC1 | 18.6 | 18.6 | 16.6 | 502 | 570 | 462
26 | CC[C@@H]1C(=O)N(C)c2cnc(Nc3ccc(C(=O)NC4CCC(N5CCN(CC6CC6)CC5)CC4)cc3OC)nc2N1C(C)C (some centres not stated) | 7.42 | 9.34 | 7.42 | 429 | 450 | 472

Row | SMILES | AC50 viability (NCI-H295R [1]) [µM] | AC50 viability (CU-ACC2 [2]) [µM] | AC50 viability (CU-ACC1 [3]) [µM] | area under concentration-response curve (NCI-H295R [4]) | area under concentration-response curve (CU-ACC2 [5]) | area under concentration-response curve (CU-ACC1 [6])
27 | CCNC(=O)c1cc2c(-c3cc(OCCN4CCCC4)c(Cl)cc3Cl)nc(N)nc2s1 | 2.57 | 5.74 | 5.12 | 433 | 445 | 431
28 | COc1cc(O)c2c(c1)C1OC1C[C@H](O)[C@H](O)C(=O)/C=C\C[C@H](C)OC2=O (some centres not stated) | 14.8 | 16.6 | 6.61 | 435 | 492 | 429
29 | Cc1cc(O[C@@H](CCC(F)(F)F)c2ccc(C(=O)NCCC(=O)O)cc2)cc(C)c1-c1ccc(C(C)(C)C)cc1 | 11.8 | 23.5 | 18.6 | 384 | 409 | 382
30 | C[C@@H]1COCCN1c1cc(-c2ccnn2C)c2ccnc(-c3ccn[nH]3)c2n1 | 1.32 | 6.61 | 0.742 | 415 | 399 | 388
31 | COc1ccc(-c2cc(C(O)C3CCCCN3)c3ccccc3n2)cc1 (configuration not stated) | 7.42 | 14.8 | 10.5 | 455 | 377 | 432
32 | CC1(N2CCC(n3c([C@@H]4CCCNC4)nc4ccccc43)CC2)CCCCCCC1 | 11.8 | 13.2 | 10.5 | 439 | 562 | 470
33 | Cc1cc(-c2ccc(CC(=O)Nc3ccc(-c4cccnc4)cc3)cc2)ccn1 | 16.6 | 23.5 | 20.9 | 440 | 460 | 435
34 | O=C(/C=C/c1cccc([S+](=O)([O-])Nc2ccccc2)c1)NO | 3.72 | 5.25 | 3.72 | 404 | 429 | 362
35 | Nc1ccccc1NC(=O)c1ccc(CNc2nccc(-c3cccnc3)n2)cc1 | 2.35 | 5.25 | 2.09 | 339 | 445 | 309
36 | COC(=O)[C@]12CCC(C)(C)C[C@H]1[C@H]3C(=O)\C=C\4[C@@](C)(CC[C@H]5C(C)(C)C(=O)\C(=C/[C@]45C)C#N)[C@]3(C)CC2 | 13.2 | 16.6 | 20.9 | 412 | 375 | 402
37 | CC(C)C1NC(=O)C(NC(=O)C2=C3\N=C\4/C(=C(C)\C(=O)\C(=C4C(=O)NC5C(C)OC(=O)C(C(C)C)N(C)C(=O)CN(C)C(=O)C6CCCN6C(=O)C(NC5=O)C(C)C)N)OC3=C(C)C=C2)C(C)OC(=O)C(C(C)C)N(C)C(=O)CN(C)C(=O)C7CCCN7C1=O (configuration not stated) | 0.144 | 0.00812 | 0.0512 | 307 | 152 | 230
38 | C[C@@]12O[C@@H](C[C@]1(O)CO)n1c3ccccc3c3c4c(c5c6ccccc6n2c5c31)CNC4=O | 14.8 | 9.34 | 6.61 | 407 | 346 | 380
39 | CCCCC(=O)OCC(=O)[C@]1(O)Cc2c(O)c3c(c(O)c2[C@@H](O[C@H]2C[C@H](NC(=O)C(F)(F)F)[C@H](O)[C@H](C)O2)C1)C(=O)c1c(OC)cccc1C3=O | 16.6 | 9.34 | 7.42 | 537 | 544 | 373
40 | O=C(Nc1ccnc(NC(=O)C2CC2)c1)c1c(Cl)cccc1Cl | 18.6 | 4.17 | 9.34 | 479 | 463 | 390
41 | Cc1ccc(-c2cc(C(F)(F)F)nn2-c2ccc([S+](N)(=O)[O-])cc2)cc1 | 9.34 | 10.5 | 10.5 | 271 | 261 | 268
42 | COCCN1CCN(Cc2ccc(-c3n[nH]c4c3C(=O)c3c(NC(=O)NN5CCOCC5)cccc3-4)cc2)CC1 | 0.833 | 0.148 | 0.468 | 372 | 295 | 301
43 | C=CC(=O)N1CC[C@@H](Oc2nc(Nc3ccc(N4CCC(N5CCN(C)CC5)CC4)cc3)c(C(N)=O)nc2CC)C1 | 8.11 | 8.11 | 8.11 | 529 | 559 | 521
44 | Cn1ncc(Cl)c1-c1cc(C(=O)NC(CN)Cc2ccc(F)c(F)c2)oc1Cl (configuration not stated) | 5.9 | 16.6 | 6.61 | 403 | 422 | 393
45 | COCCOc1ccc2c(c1)ncn2-c1ccc2cccc(N3CCC(N)CC3)c2n1 | 6.61 | 10.5 | 16.6 | 420 | 370 | 409
46 | Cc1cc(I)ccc1Nc1c(C(=O)NOCC2CC2)cc(F)c(F)c1F | 8.33 | 18.6 | 16.6 | 490 | 554 | 445
47 | c1ccc2c(CCNc3ccc(Nc4ccncc4)cc3)c[nH]c2c1 | 1.86 | 10.5 | 5.9 | 400 | 374 | 363
48 | N/C(=N\C(=O)c1nc(Cl)c(N)nc1N)NCc1ccccc1 | 11.8 | 8.33 | 10.5 | 396 | 370 | 322
49 | CCCCc1nc2cc(/C=C/C(=O)NO)ccc2n1CCN(CC)CC | 1.48 | 5.9 | 1.66 | 453 | 405 | 416
50 | CN(C)c1ccc(C(=O)NCCCCCCC(=O)NO)cc1 | 5.25 | 4.17 | 4.68 | 444 | 450 | 348
51 | CCN(CC)CCNC(=O)c1c(C)[nH]c(/C=C2/C(=O)Nc3ccc(-c4csc(-c5ccccc5)n4)cc32)c1C | 7.42 | 9.34 | 13.2 | 453 | 521 | 369
52 | C=CC(=O)N1CC/C(=C\c2ccc(F)c([N+](=O)[O-])c2)C(=O)/C(=C/c2ccc(F)c([N+](=O)[O-])c2)C1 | 0.209 | 0.148 | 0.263 | 333 | 342 | 318
